These molecules were tested against T1, human TLR8 (Homo sapiens, UniProt Q9NR97) (assay: TLR8 inhibition reporter assay (HEK-Blue SEAP)). Conditions: HEK-Blue cells overexpressing human TLR8, R848 15.9 μM, 22 hour incubation.
T1 construct: host or cells: HEK-Blue cells
T1 sequence (Q9NR97 27-1041): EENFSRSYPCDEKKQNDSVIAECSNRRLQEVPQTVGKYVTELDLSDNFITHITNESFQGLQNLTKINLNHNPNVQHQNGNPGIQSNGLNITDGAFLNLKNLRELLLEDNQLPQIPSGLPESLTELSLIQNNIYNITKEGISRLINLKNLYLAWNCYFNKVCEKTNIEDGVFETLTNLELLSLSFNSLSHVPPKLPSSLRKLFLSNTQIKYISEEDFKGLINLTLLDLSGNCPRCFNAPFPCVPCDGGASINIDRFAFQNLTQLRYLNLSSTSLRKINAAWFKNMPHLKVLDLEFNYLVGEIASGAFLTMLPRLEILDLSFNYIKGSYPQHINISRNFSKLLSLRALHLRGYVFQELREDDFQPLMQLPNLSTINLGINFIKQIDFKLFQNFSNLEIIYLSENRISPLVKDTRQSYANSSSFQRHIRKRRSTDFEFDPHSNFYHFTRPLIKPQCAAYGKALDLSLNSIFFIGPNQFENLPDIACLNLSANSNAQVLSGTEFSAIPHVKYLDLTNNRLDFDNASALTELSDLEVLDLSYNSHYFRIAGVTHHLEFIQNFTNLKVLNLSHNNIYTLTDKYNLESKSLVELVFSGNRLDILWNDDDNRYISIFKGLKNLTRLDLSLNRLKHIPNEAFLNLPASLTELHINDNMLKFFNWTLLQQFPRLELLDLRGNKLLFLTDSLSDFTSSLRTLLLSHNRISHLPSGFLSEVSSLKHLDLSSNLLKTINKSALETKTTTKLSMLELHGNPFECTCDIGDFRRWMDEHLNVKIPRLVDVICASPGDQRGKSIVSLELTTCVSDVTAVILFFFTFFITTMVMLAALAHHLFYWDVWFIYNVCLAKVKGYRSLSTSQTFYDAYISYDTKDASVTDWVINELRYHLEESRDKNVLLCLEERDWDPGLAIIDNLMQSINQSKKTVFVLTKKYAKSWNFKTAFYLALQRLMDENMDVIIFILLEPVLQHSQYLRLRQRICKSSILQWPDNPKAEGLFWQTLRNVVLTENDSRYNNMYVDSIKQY
Type: cell-based
Procedure, shortened: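 Human TLR7/8/9 HEK-Blue reporter lines; dose range 0.05 nM–50 μM; 30 min RT preincubation; stimulus gardiquimod 7.5 μM / R848 15.9 μM / ODN2006 5 nM respectively; 22 h, 37 °C; SEAP detected colorimetrically.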

| IC50 | Structure (SMILES) |
| --- | --- |
| 23.5 nM | Cc1c(-c2cc3[nH]c(=O)n([C@@H]4CCCN(C)C4)c3cc2C(C)C)cn2ncnc2c1C [Example 147, (R)-5-(7,8-dimethyl-[1,2,4]triazolo[1,5-a]pyridin-6-yl)-6-isopropyl-1-(1-methylpiperidin-3-yl)-1,3-dihydro-2H-benzo[d]imidazol-2-one] |
| 318 nM | COc1cc(-c2cc3[nH]c(=O)n(C4CCCN(C(=O)CN(C)C)C4)c3cc2C)cn2ncnc12 (stereo not shown) [Example 105, 1-(1-(dimethylglycyl)piperidin-3-yl)-5-(8-methoxy-[1,2,4]triazolo[1,5-a]pyridin-6-yl)-6-methyl-1,3-dihydro-2H-benzo[d]imidazol-2-one] |
| 22.7 nM | COCCN1CCC[C@@H](n2c(=O)[nH]c3cc(-c4cc(OC)c5ncnn5c4)c(C(F)(F)F)cc32)C1 [Example 118, (R)-5-(8-methoxy-[1,2,4]triazolo[1,5-a]pyridin-6-yl)-1-(1-(2-methoxyethyl)piperidin-3-yl)-6-(trifluoromethyl)-1,3-dihydro-2H-benzo[d]imidazol-2-one] |
| 2.01 nM | COc1cc(-c2cc3[nH]c(=O)n([C@@H]4CCCN(C)C4)c3cc2C(C)C)cn2ncnc12 [Example 136, (R)-6-isopropyl-5-(8-methoxy-[1,2,4]triazolo[1,5-a]pyridin-6-yl)-1-(1-methylpiperidin-3-yl)-1,3-dihydro-2H-benzo[d]imidazol-2-one] |
